Results from patent US20230285420A1, “USE OF C[…] THE TREATMENT OF SEIZURES ASSOCIATED WITH RARE […] SYNDROMES RELATED TO GENETIC ABNORMALITIES” (GW Research Limited, priority 2020, published 2023).
Entries after “also recorded” stand apart in the source; their conditions may differ.

Tested on: seizures associated with gross chromosomal mutations
Test: Open label, expanded-access program: seizure frequency recorded in caregiver diaries versus baseline in patients on CBD plus concomitant AEDs
Type: in vivo, human
Design: Seizure frequency, Tonic-clonic / Seizure frequency, Atonic / Seizure frequency, Tonic / Seizure frequency, Absence / Seizure frequency, Focal without impairment / Seizure frequency, Focal with impairment: unit not given here
Experimental: Subjects were required to be on one or more AEDs at stable doses for a minimum of two weeks prior to baseline and to have stable vagus nerve stimulation (VNS) settings and ketogenic diet ratios for a minimum of four weeks prior to baseline.
Dose was then increased weekly by 5 mg/kg/day to a goal of to 25 mg/kg/day.
Modifications were made to concomitant AEDs as per clinical indication.
Seizure frequency, intensity, and duration were recorded by caregivers in a diary during a baseline period of at least 28 days. Changes in seizure frequency relative to baseline were calculated after at least 2 weeks and at defined timepoints of treatment.
Patients may be defined as responders if they had more than 50% reduction in seizure frequency compared to baseline. The percent change in seizure frequency was calculated as follows: […]
The percent change of seizure frequency may be calculated for any time interval where seizure number has been recorded. For the purpose of this example the percent change of seizure frequency for the end of the treatment period was calculated as follows: […]

[1] = Patient 5, 2 weeks, CBD 10.0 mg/kg/day
[2] = Patient 5, 4 weeks, CBD 15.0 mg/kg/day
[3] = Patient 5, 8 weeks, CBD 20.0 mg/kg/day
[4] = Patient 5, 12 weeks, CBD 20.0 mg/kg/day
[5] = Patient 5, 16 weeks, CBD 20.0 mg/kg/day
[6] = Patient 5, 24 weeks, CBD 20.0 mg/kg/day
[7] = Patient 5, treated for 24 weeks, vs baseline
[8] = Patient 6, 2 weeks, CBD 10.0 mg/kg/day
[9] = Patient 6, 4 weeks, CBD 20.0 mg/kg/day
[10] = Patient 6, 8 weeks, CBD 25.0 mg/kg/day
[11] = Patient 6, 12 weeks, CBD 25.0 mg/kg/day
[12] = Patient 6, 16 weeks, CBD 25.0 mg/kg/day
[13] = Patient 6, 24 weeks, CBD 25.0 mg/kg/day
[14] = Patient 7, 4 weeks, CBD 10.0 mg/kg/day
[15] = Patient 7, 12 weeks, CBD 10.0 mg/kg/day
[16] = Patient 7, 16 weeks, CBD 10.0 mg/kg/day
[17] = Patient 7, 24 weeks, CBD 10.0 mg/kg/day
[18] = Patient 7, 48 weeks, CBD 15.0 mg/kg/day
[19] = Patient 7, 60 weeks, CBD 20.0 mg/kg/day
[20] = Patient 7, 72 weeks, CBD 20.0 mg/kg/day
[21] = Patient 7, 84 weeks, CBD 25.0 mg/kg/day
[22] = Patient 7, 108 weeks, CBD 25.0 mg/kg/day
[23] = Patient 7, 120 weeks, CBD 23.6 mg/kg/day
[24] = Patient 7, 132 weeks, CBD 23.2 mg/kg/day
[25] = tonic, tonic-clonic, atonic, absence, focal without impairment, focal with secondary generalisation

C=C(C)[C@@H]1CCC(C)=C[C@H]1c1c(O)cc(CCCCC)cc1O [CBD, cannabidiol]
treatment time after which patient became seizure free in focal seizures without impairment (Patient 5): 16 weeks | Seizure frequency, Absence [1]: 78.0 | Seizure frequency, Focal without impairment [1]: 0.0 | Seizure frequency, Tonic [1]: 8.0 | Seizure frequency, Absence [2]: 81.8 | Seizure frequency, Focal without impairment [2]: 47.4 | Seizure frequency, Tonic [2]: 4.3 | Seizure frequency, Absence [3]: 39.6 | Seizure frequency, Focal without impairment [3]: 2.9 | Seizure frequency, Tonic [3]: 1.9 | Seizure frequency, Absence [4]: 43.4 | Seizure frequency, Focal without impairment [4]: 1.0 | Seizure frequency, Tonic [4]: 5.1 | Seizure frequency, Absence [5]: 6.0 | Seizure frequency, Focal without impairment [5]: 0.0 | Seizure frequency, Tonic [5]: 3.0 | Seizure frequency, Absence [6]: 0.0 | Seizure frequency, Focal without impairment [6]: 0.0 | Seizure frequency, Tonic [6]: 7.0 | reduction in absence seizures over the treatment period [7]: 100% | reduction in focal seizures without impairment over the treatment period [7]: 100% | reduction in tonic seizures over the treatment period [7]: 50% | Seizure frequency, Atonic [8]: 0.0 | Seizure frequency, Focal with impairment [8]: 4.0 | Seizure frequency, Focal without impairment [8]: 0.0 | Seizure frequency, Atonic [9]: 0.0 | Seizure frequency, Focal with impairment [9]: 2.0 | Seizure frequency, Focal without impairment [9]: 0.0 | Seizure frequency, Atonic [10]: 0.0 | Seizure frequency, Focal with impairment [10]: 2.0 | Seizure frequency, Focal without impairment [10]: 0.0 | Seizure frequency, Atonic [11]: 0.0 | Seizure frequency, Focal with impairment [11]: 3.0 | Seizure frequency, Focal without impairment [11]: 1.0 | Seizure frequency, Atonic [12]: 2.0 | Seizure frequency, Focal with impairment [12]: 2.0 | Seizure frequency, Focal without impairment [12]: 5.0 | Seizure frequency, Atonic [13]: 3.0 | Seizure frequency, Focal with impairment [13]: 5.0 | Seizure frequency, Focal without impairment [13]: 6.0 | reduction in seizures over the treatment period (in words) (Patient 6, treated for 24 weeks, atonic, focal without impairment, focal with impairment): did not experience a reduction in seizures | Seizure frequency, Absence [14]: 20.0 | Seizure frequency, Tonic [14]: 372.0 | Seizure frequency, Tonic-clonic [14]: 240.0 | Seizure frequency, Absence [15]: 12.0 | Seizure frequency, Tonic [15]: 308.0 | Seizure frequency, Tonic-clonic [15]: 448.0 | Seizure frequency, Absence [16]: 12.0 | Seizure frequency, Tonic [16]: 308.0 | Seizure frequency, Tonic-clonic [16]: 448.0 | Seizure frequency, Absence [17]: 20.0 | Seizure frequency, Tonic [17]: 248.0 | Seizure frequency, Tonic-clonic [17]: 404.0 | Seizure frequency, Absence [18]: 20.0 | Seizure frequency, Tonic [18]: 216.0 | Seizure frequency, Tonic-clonic [18]: 356.0 | Seizure frequency, Absence [19]: 28.0 | Seizure frequency, Tonic [19]: 244.0 | Seizure frequency, Tonic-clonic [19]: 304.0 | Seizure frequency, Absence [20]: 28.0 | Seizure frequency, Tonic [20]: 244.0 | Seizure frequency, Tonic-clonic [20]: 304.0 | Seizure frequency, Absence [21]: 32.0 | Seizure frequency, Tonic [21]: 208.0 | Seizure frequency, Tonic-clonic [21]: 280.0 | Seizure frequency, Absence [22]: 24.0 | Seizure frequency, Tonic [22]: 184.0 | Seizure frequency, Tonic-clonic [22]: 288.0 | Seizure frequency, Absence [23]: 0.0 | Seizure frequency, Tonic [23]: 0.0 | Seizure frequency, Tonic-clonic [23]: 5.6 | Seizure frequency, Absence [24]: 0.0 | Seizure frequency, Tonic [24]: 0.0 | Seizure frequency, Tonic-clonic [24]: 2.4 | reductions in seizures over period of treatment, overall (overall, across patients): 43.6-100% | benefit in patients with tonic-clonic seizures (in words) (patients 1, 3 and 7): significant benefit | benefit in patients with absence seizures (in words) (patients 3, 5 and 7): significant benefit | effect on number of seizures associated with gross chromosomal mutations (in words) (seven patients, open label expanded-access program): significantly reduce the number of seizures; also recorded: significant reduction | decrease of seizure frequency rates, overall [25]: 44-100% | effect on frequency of seizure types (in words) [25]: effective in reducing the frequency
